The values below come from ChEMBL document CHEMBL1124694, “C2,N6-disubstituted adenosines: synthesis and structure-activity relationships” (J Med Chem, 1989).

One experiment has as its target T1, Adenosine receptor A1 (Rattus norvegicus, UniProt P25099).
T1 sequence (P25099 whole entry): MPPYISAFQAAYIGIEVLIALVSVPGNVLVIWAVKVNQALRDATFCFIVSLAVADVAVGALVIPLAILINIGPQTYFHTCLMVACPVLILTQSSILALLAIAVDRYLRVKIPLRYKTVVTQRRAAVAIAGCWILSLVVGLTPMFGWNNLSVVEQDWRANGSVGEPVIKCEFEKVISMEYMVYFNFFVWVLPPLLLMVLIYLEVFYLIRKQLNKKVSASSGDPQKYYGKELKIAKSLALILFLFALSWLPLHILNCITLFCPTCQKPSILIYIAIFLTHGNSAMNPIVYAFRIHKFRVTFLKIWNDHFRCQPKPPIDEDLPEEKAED

The target in experiment [1] is T2, Adenosine A2 receptor (Rattus norvegicus, UniProt P29276+P30543).
Experiment [2] has as its target T2, Adenosine A2 receptor. In words: Inhibition of [3H]NECA binding to Adenosine A2 receptor of rat striatal membranes. Type of experiment: cell membranes, Membrane.

Molecules are shown by their SMILES.

As to `OC[C@H]1OC(n2cnc3c(NC4CC5CCC4C5)nc(Nc4ccccc4)nc32)[C@H](O)[C@@H]1O` (stereo not given in full), the Ki (in general, the dissociation constant of the complex between target and ligand, obtained from inhibition or displacement) at Adenosine receptor A1 amounted to 7.7 nM; on Adenosine A2 receptor [1] it was 472 nM.
As for `OC[C@H]1OC(n2cnc3c(NCc4cccc5ccccc45)nc(F)nc32)[C@H](O)[C@@H]1O` (stereo not given in full), the Ki at Adenosine receptor A1 is 18.1 nM; on Adenosine A2 receptor [1] it was 14.9 nM.
For `OC[C@H]1OC(n2cnc3c(NCc4ccccc4)nc(Nc4ccccc4)nc32)[C@H](O)[C@@H]1O` (stereo not given in full), the figures for the Ki at Adenosine receptor A1 and on Adenosine A2 receptor [1] were 1630 nM and 7100 nM, respectively.
As for `OC[C@H]1OC(n2cnc3c(NC4CCCCC4)nc(Sc4ccccc4)nc32)[C@H](O)[C@@H]1O` (stereo not given in full), the Ki worked out at 160 nM at Adenosine receptor A1 and 6700 nM on Adenosine A2 receptor [1].
Take `Nc1nc(NC2CCCC2)c2ncn(C3O[C@H](CO)[C@@H](O)[C@H]3O)c2n1` (stereo not given in full): the Ki at Adenosine receptor A1 stood at 8.3 nM; on Adenosine A2 receptor [1], 6100 nM.
With `OC[C@H]1OC(n2cnc3c(NCc4cccc5ccccc45)nc(Nc4ccccc4)nc32)[C@H](O)[C@@H]1O` (stereo not given in full), the results for the Ki on Adenosine receptor A1 and at Adenosine A2 receptor [1] were 560 nM and 230 nM, respectively.
The matching figures for `OC[C@H]1OC(n2cnc3c(NCc4cccc5ccccc45)nc(Sc4ccccc4)nc32)[C@H](O)[C@@H]1O` (stereo not given in full): 1470 nM and 610 nM.
Take `CC(Cc1ccccc1)Nc1nc(Nc2ccccc2)nc2c1ncn2C1O[C@H](CO)[C@@H](O)[C@H]1O` (stereo not given in full): the values for the inhibition constant (Ki) on Adenosine receptor A1 and on Adenosine A2 receptor [1] were 152 nM and 240 nM, respectively.
As to `COc1ccc(-c2nc(N)c3ncn(C4O[C@H](CO)[C@@H](O)[C@H]4O)c3n2)cc1` (stereo not given in full), the values for the Ki on Adenosine A2 receptor [2] and at Adenosine receptor A1 were 600 nM and 1320 nM, respectively.
Consider `Nc1nc(S(=O)(=O)c2ccccc2)nc2c1ncn2C1O[C@H](CO)[C@@H](O)[C@H]1O` (stereo not given in full), for which the Ki amounted to 1230 nM on Adenosine A2 receptor [2] and 2600 nM at Adenosine receptor A1.
On Adenosine receptor A1, `OC[C@H]1O[C@@H](n2cnc3c(NC4CC4)ncnc32)[C@H](O)[C@@H]1O` gave a Ki of 3.2 nM.
As to `O=S(=O)(c1ccccc1)c1nc(NC2CCCCC2)c2ncn(C3O[C@H](CO)[C@@H](O)[C@H]3O)c2n1` (stereo not given in full), the Ki on Adenosine receptor A1 was found to be 420 nM; on Adenosine A2 receptor [1], 5100 nM.
For `OC[C@H]1OC(n2cnc3c(NC4CCCC4)nc(Nc4ccccc4)nc32)[C@H](O)[C@@H]1O` (stereo not given in full), the results for the Ki on Adenosine receptor A1 and on Adenosine A2 receptor [1] were 12.4 nM and 144 nM, respectively.
`O=S(=O)(c1ccccc1)c1nc(NC2CCCC2)c2ncn(C3O[C@H](CO)[C@@H](O)[C@H]3O)c2n1` (stereo not given in full): the Ki on Adenosine receptor A1 was found to be 96 nM; at Adenosine A2 receptor [1] it was 2300 nM.
As for `OC[C@H]1OC(n2cnc3c(NCc4cccc5ccccc45)nc(NCc4ccccc4)nc32)[C@H](O)[C@@H]1O` (stereo not given in full), the results for the Ki on Adenosine receptor A1 and at Adenosine A2 receptor [1] were 530 nM and 350 nM, respectively.
Consider `Nc1nc(Sc2ccccc2)nc2c1ncn2C1O[C@H](CO)[C@@H](O)[C@H]1O` (stereo not given in full), for which the values for the inhibition constant Ki at Adenosine A2 receptor [2] and on Adenosine receptor A1 were 2000 nM and 2200 nM, respectively.
Take `CC(O)CNc1nc(Nc2ccccc2)nc2c1ncn2C1O[C@H](CO)[C@@H](O)[C@H]1O` (stereo not given in full): the Ki was 50 nM on Adenosine receptor A1 and 1700 nM on Adenosine A2 receptor [1].
The matching figures for `OC[C@H]1OC(n2cnc3c(NC4CC4)nc(Nc4ccccc4)nc32)[C@H](O)[C@@H]1O` (stereo not given in full): 68 nM and 960 nM.
For `Nc1nc(NCC(c2ccccc2)c2ccccc2)c2ncn(C3O[C@H](CO)[C@@H](O)[C@H]3O)c2n1` (stereo not given in full), in that order: 61 nM and 135 nM.
For `O=S(=O)(c1ccccc1)c1nc(NCc2cccc3ccccc23)c2ncn(C3O[C@H](CO)[C@@H](O)[C@H]3O)c2n1` (stereo not given in full), the Ki on Adenosine receptor A1 amounted to 2000 nM; on Adenosine A2 receptor [1], 270 nM.
For the compound `Nc1nc(NCC2c3ccccc3-c3ccccc32)c2ncn(C3O[C@H](CO)[C@@H](O)[C@H]3O)c2n1` (stereo not given in full), the Ki amounted to 18.5 nM on Adenosine receptor A1 and 22 nM at Adenosine A2 receptor [1].
On to `CC(Cc1ccccc1)Nc1nc(Sc2ccccc2)nc2c1ncn2C1O[C@H](CO)[C@@H](O)[C@H]1O` (stereo not given in full), for which the figures for the Ki at Adenosine receptor A1 and at Adenosine A2 receptor [1] were 210 nM and 1000 nM, respectively.
Consider `Nc1nc(NC2CCCCC2)c2ncn(C3O[C@H](CO)[C@@H](O)[C@H]3O)c2n1` (stereo not given in full), for which the Ki at Adenosine receptor A1 was 19.3 nM; on Adenosine A2 receptor [1], 3500 nM.
For `CC(O)CNc1ncnc2c1ncn2C1O[C@H](CO)[C@@H](O)[C@H]1O` (stereo not given in full), the Ki worked out at 5 nM on Adenosine receptor A1 and 9300 nM on Adenosine A2 receptor [1].
For `OC[C@H]1O[C@@H](n2cnc3c(NCc4cccc5ccccc45)nc(NC4CCCCC4)nc32)[C@H](O)[C@@H]1O`, in that order: 45000 nM and 10300 nM.
With `COc1cc(OC)cc(C(CNc2nc(Nc3ccccc3)nc3c2ncn3C2O[C@H](CO)[C@@H](O)[C@H]2O)c2ccccc2)c1` (stereo not given in full), the Ki at Adenosine receptor A1 is 9000 nM; at Adenosine A2 receptor [1], 470 nM.
With `COc1cc(OC)cc(C(CNc2nc(Nc3ccccc3)nc3c2ncn3C2O[C@H](CO)[C@@H](O)[C@H]2O)c2ccccc2C)c1` (stereo not given in full), the Ki was 10300 nM at Adenosine receptor A1 and 340 nM at Adenosine A2 receptor [1].
On to `OC[C@H]1OC(n2cnc3c(NCC(c4ccccc4)c4ccccc4)nc(Nc4ccccc4)nc32)[C@H](O)[C@@H]1O` (stereo not given in full), for which the Ki on Adenosine receptor A1 was 2700 nM; on Adenosine A2 receptor [1] it was 650 nM.
Regarding `OC[C@H]1OC(n2cnc3c(NC4CCCC4)nc(Sc4ccccc4)nc32)[C@H](O)[C@@H]1O` (stereo not given in full), the Ki at Adenosine receptor A1 was found to be 37 nM; on Adenosine A2 receptor [1], 4000 nM.
Turning to `Nc1nc(=O)[nH]c2c1ncn2[C@@H]1O[C@H](CO)[C@@H](O)[C@H]1O` [ISOGUANOSINE], the Ki at Adenosine A2 receptor [2] is 330 nM. That is a sub-micromolar value.
With `OC[C@H]1OC(n2cnc3c(NC4CCCCC4)nc(Nc4ccccc4)nc32)[C@H](O)[C@@H]1O` (stereo not given in full), the Ki at Adenosine receptor A1 turned out to be 54 nM; on Adenosine A2 receptor [1], 450 nM.
For `OC[C@H]1OC(n2cnc3c(NCC4c5ccccc5-c5ccccc54)nc(Nc4ccccc4)nc32)[C@H](O)[C@@H]1O` (stereo not given in full), in that order: 8900 nM and 2100 nM.
As for `OC[C@H]1OC(n2cnc3c(NCC(c4ccccc4)c4ccccc4)nc(Sc4ccccc4)nc32)[C@H](O)[C@@H]1O` (stereo not given in full), the Ki at Adenosine receptor A1 stood at 840 nM; on Adenosine A2 receptor [1], 800 nM.
Regarding `OC[C@H]1OC(n2cnc3c(NCCc4ccccc4)nc(NCCc4ccccc4)nc32)[C@H](O)[C@@H]1O` (stereo not given in full), the Ki is 1620 nM at Adenosine receptor A1 and 2000 nM at Adenosine A2 receptor [1].
Regarding `CC(Cc1ccccc1)Nc1nc(N)nc2c1ncn2C1O[C@H](CO)[C@@H](O)[C@H]1O` (stereo not given in full), the Ki on Adenosine receptor A1 turned out to be 19.2 nM; at Adenosine A2 receptor [1] it was 1530 nM.
As for `OC[C@H]1OC(n2cnc3c(NN4CCCC4)nc(Nc4ccccc4)nc32)[C@H](O)[C@@H]1O` (stereo not given in full), the Ki on Adenosine receptor A1 came out at 18400 nM; at Adenosine A2 receptor [1], 58000 nM.
